In patent US4435410A, “3-[2-(3-Alkyl and alkenyl-4-piperidyl)-ethyl]-indoles for inhibiting serotonin uptake and for releasing serotonin” (Pharmindustrie, priority 1981, dated 1984):

Legend:
[1] = tested on: human blood platelets (uptake of serotonin); assay: Inhibition of the uptake of serotonin by human blood platelets; assay type: cell-based; conditions: Platelet, read-out: Inhibition of serotonin uptake I50
Description: It is known that the uptake of serotonin by the blood platelets constitutes a good model for the uptake of this amine by the neurons (cf. J. Tuomisto, J. Pharm. Pharmac., 26. 92 (1974). When it is applied to the study of medicaments, a method which makes use of the blood platelets is very attractive from the point of view of allowing human cells to be used, thereby giving it good prospects.
The ability of products to inhibit the uptake of serotonin or to cause its release has been shown on human blood platelets according to J. L. David and Coll. "Platelets Function and Thrombosis, a Review of Methods", p. 335 (Plenum Press, London, 1972).
(1) Inhibition of the uptake of serotonin
The results are expressed by a 50% inhibiting dose or I50 which represents the dose of the product in micromoles per liter, reducing the uptake of serotonin by 50%.

[2] = tested on: human blood platelets (release of serotonin); assay: Release of serotonin from human blood platelets; assay type: cell-based; conditions: Platelet, product concentration 5 × 10^-5 moles per liter, compared with controls, read-out: Percent of increased serotonin release
Protocol: The ability of products to inhibit the uptake of serotonin or to cause its release has been shown on human blood platelets according to J. L. David and Coll. "Platelets Function and Thrombosis, a Review of Methods", p.
The action of the products on the release of serotonin is tested at a concentration of 5×10^-5 moles per liter.

[3] = Acute toxicity in male mice by oral administration; conditions: mouse, in vivo; male mice CD1, oral, after 3 days' observation, cumulative method
Protocol: The acute toxicity of the products was determined in male mice CD1 (Charles RIVER) by oral administrations. The LD50 which was calculated after 3 days' observation, by the cumulative method of J. J. Reed and Coll. (Am. J. Hyg. 27, 493-1938) is 225 mg/kg for the compound of Example 1, and about 200 mg/kg for the compound of Example 4.

SMILES	IC50 [1]	activation at 50 µM [2]	LD50 at 72 h [3]
CC[C@H]1CNCC[C@H]1CCc1c[nH]c2ccccc12 [Example 2, 3-{2-[3(R)ETHYL-4(R)PIPERIDYL]-ETHYL}-INDOLE]	60 nM	75%	
C=C[C@@H]1CNCC[C@H]1CCc1c[nH]c2ccccc12 [Example 4, 3-{2-[3(S)VINYL-4(R)PIPERIDYL]-ETHYL}-INDOLE]	35 nM	91%	~200 mg/kg
C=C[C@H]1CNCC[C@H]1CCc1c[nH]c2ccccc12 [Example 1, 3-[2-(3(R)VINYL-4(R)PIPERIDYL)-ETHYL]-INDOLE]	8 nM	84%	225 mg/kg
